Experimental data from article PMC5491650, “Structure-Activity Relationships of Pentacyclic Triterpenoids as Potent and Selective Inhibitors against Human Carboxylesterase 1” (Frontiers in Pharmacology, 2017).
“Also recorded” adds a separate entry of the source.

Legend:
Format in all cases: biochemical
hCE1 [1] = target: T1, hCE1 (Homo sapiens, UniProt P23141); experiment: hCE1 inhibition assay, DME hydrolysis in human liver microsomes; design: tissue Celsis (Shanghai, China); host or cells: human liver microsomes (HLM);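 note: carboxylesterase inhibition read out as probe hydrolysis, with DME serving as hCE1 substrate and DDAB as hCE2 substrate, in DMSO below 2% (V/V)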
T1 sequence (P23141 18-567): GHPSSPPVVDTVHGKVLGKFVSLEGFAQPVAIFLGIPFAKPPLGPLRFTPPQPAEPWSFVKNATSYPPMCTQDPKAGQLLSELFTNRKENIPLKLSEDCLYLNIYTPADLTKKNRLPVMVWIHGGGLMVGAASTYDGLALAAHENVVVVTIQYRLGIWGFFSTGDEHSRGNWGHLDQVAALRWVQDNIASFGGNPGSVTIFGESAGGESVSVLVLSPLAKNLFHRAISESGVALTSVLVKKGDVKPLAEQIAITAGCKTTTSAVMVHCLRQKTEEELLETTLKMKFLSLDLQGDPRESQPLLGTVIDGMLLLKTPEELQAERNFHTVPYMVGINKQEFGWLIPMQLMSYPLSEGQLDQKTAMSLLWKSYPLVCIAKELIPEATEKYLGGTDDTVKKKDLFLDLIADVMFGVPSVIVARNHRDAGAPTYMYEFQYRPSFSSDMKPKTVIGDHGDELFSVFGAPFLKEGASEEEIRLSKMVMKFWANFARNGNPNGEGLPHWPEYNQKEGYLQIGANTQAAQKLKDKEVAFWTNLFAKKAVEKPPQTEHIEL
Protocol: (§1) All fluorescence-based assays were performed on Synergy H^1 Hybrid Multi-Mode Microplate Reader (BioTek, USA).
(§2) The inhibitory effects toward CEs were assayed using DME and DDAB as the specific probe substrates for hCE1 and hCE2, respectively. […] Control incubations without BNPP were also performed. After incubation, ice-cold acetonitrile (equal volume of incubation mixture, 200 μL) was added to terminate the reaction. The mixture was then centrifuged at 20,000 g for 20 min at 4°C. All these compounds dissolved in DMSO, and the final concentration of DMSO was <2% (V/V). Aliquots of the supernatant were then taken for further microplate reader analyses. […] First, each of the potential esterase inhibitors was pre-incubated with HLM at 37°C for 10 min with shaking in microplate reader. Then DME was added to start the reaction. After incubation at 37°C for 10 min in a shaking bath, LDR (equal volume of incubation mixture, 50 μL) was added to terminate the reaction, and luminescence measurements were conducted as described above.

hCE1 [2] = target: T1, hCE1; experiment: Inhibition of DME hydrolysis by recombinant hCE1
Protocol: To further investigate the inhibitory behaviors of compound 22 on the catalytic activity of hCE1, the inhibition behaviors of this compound against hCE1 were performed. […] In addition, the inhibitory tendency and potency of compound 22 against DME-hydrolysis in both HLMs and hCE1 were much closed (Figure S1).

hCE1 [3] = target: T1, hCE1; experiment: Inhibition of hCE1-mediated BMBT hydrolysis in HLMs; design: tissue Celsis (Shanghai, China); host or cells: human liver microsomes (HLM)
Protocol: The half maximal inhibitory concentration (IC50) of each compound was determined using various inhibitor concentrations under the same incubation conditions as mentioned above. The inhibition constant (Ki) values of compound 22 against hCE1 in HLM were determined using varied concentrations of DME in the presence or absence of each inhibitor. […] Dixon plot and Lineweaver-Burk plots were used to fit the data. The inhibition kinetic type was evaluated by determining the intersection point in the Dixon and Lineweaver-Burk plots. The second plots based on the slopes from Lineweaver-Burk plot vs. inhibitor concentrations were utilized to calculate each the inhibition constant (Ki) value (Wang et al., [2015]; Zhu et al., [2015], [2016]).
To this end, another optical probe substrate (BMBT) for hCE1 was used for further investigation on the inhibition behaviors of compound 22 (Liu et al., [2014]).

hCE2 = target: T2, hCE2 (Homo sapiens, UniProt O00748); experiment: hCE2 inhibition assay, DDAB hydrolysis in human liver microsomes; details: DDAB as probe substrate, HLM; averages of at least three experiments; read-out: IC50 (hCE2)
T2 construct: tissue Celsis (Shanghai, China); host or cells: human liver microsomes (HLM)
T2 sequence (O00748 27-559): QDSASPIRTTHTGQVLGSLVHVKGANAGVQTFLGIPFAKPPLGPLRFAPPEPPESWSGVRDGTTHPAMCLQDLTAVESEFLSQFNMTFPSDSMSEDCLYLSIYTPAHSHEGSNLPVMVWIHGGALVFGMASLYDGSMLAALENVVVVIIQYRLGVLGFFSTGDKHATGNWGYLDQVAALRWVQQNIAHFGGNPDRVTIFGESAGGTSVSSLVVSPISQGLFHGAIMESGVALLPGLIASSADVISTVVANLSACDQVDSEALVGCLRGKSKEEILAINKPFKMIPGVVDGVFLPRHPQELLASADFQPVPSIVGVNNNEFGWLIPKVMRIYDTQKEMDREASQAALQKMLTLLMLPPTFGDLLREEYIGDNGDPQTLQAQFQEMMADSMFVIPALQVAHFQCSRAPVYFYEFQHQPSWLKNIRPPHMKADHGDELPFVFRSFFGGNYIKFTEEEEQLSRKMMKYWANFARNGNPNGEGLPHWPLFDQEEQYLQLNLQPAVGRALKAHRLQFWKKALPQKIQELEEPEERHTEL
Protocol: as §1, §2

CC1CCC2(C(=O)O)CCC3(C)C(=CCC4C5(C)CCC(OC(=O)CCC(=O)O)C(C)(C)C5CCC43C)C2C1C (stereo not drawn) [Compound 22, 3β-O-(β-carboxypropionyl)-urs-12-en-28-oic acid]
Ki (hCE1 [1]): 12.6 nM
inhibition type against hCE1-mediated DME hydrolysis (hCE1 [1]; HLMs, Lineweaver-Burk plots): competitive inhibitor; also recorded: competitive inhibition
IC50 (hCE1 [1]; IC50 (hCE1), DME as probe substrate, HLM, averages of at least three experiments): 12 nM
IC50 (hCE1 [1]; IC50 against hCE1, DME hydrolysis in HLM): 12.6 nM
Selectivity (hCE1 [1]; calculated from IC50 (hCE2)/IC50 (hCE1) as printed): 6919.2
selectivity over hCE2 (hCE1 [1]; hCE1 versus hCE2, values of the text): 6,919 fold
Observed Log(IC50_hCE1) (hCE1 [1]; log of the experimental IC50 in μM, used for 3D-QSAR): -1.921 μM
IC50 (hCE1 [2]): 9.2 nM
IC50 (hCE1 [3]): 30.3 nM
Ki (hCE1 [3]): 35.5 nM
inhibition type against hCE1-mediated BMBT hydrolysis (hCE1 [3]; HLMs, Lineweaver-Burk plot): non-competitive inhibitor
IC50 (hCE2): 83000 nM
